Laboratory results reported in paper PMC9127186, “Molecular Basis Underlying Hepatobiliary and Renal Excretion of Phenolic Acids of Salvia miltiorrhiza Roots (Danshen)” (Frontiers in Pharmacology, 2022).

Assays:
rat Oatp1a1 = biological target: T1, rat Oatp1a1 (Rattus norvegicus, UniProt P46720); assay: Cellular transport assay, HEK-293 cells expressing rat Oatp1a1; conditions: Danshen phenolic acid at 100 μM final concentration, 10 min; rat Oatp1a1-transfected vs mock cells
T1 sequence (P46720 1-670): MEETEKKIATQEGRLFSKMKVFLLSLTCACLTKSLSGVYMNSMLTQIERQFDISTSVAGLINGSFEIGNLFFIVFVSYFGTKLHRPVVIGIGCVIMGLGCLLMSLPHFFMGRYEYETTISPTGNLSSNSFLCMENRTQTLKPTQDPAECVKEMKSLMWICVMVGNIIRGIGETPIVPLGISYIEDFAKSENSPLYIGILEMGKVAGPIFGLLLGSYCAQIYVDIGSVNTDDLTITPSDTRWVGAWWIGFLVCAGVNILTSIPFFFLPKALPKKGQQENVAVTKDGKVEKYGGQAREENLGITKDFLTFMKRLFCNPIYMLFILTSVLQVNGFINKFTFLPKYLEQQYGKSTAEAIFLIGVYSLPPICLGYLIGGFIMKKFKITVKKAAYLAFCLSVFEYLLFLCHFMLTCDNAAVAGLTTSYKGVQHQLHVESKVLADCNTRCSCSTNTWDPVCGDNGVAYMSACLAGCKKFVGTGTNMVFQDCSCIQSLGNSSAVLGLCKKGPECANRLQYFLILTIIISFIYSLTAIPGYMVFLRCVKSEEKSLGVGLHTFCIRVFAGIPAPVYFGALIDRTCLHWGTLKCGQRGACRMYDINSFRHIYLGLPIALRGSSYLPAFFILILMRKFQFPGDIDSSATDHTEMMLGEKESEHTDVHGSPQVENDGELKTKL

human OCT3 = biological target: T2, human OCT3 (Homo sapiens, UniProt O75751); assay: Cellular transport assay, HEK-293 cells expressing human OCT3; conditions: Danshen phenolic acid at 100 μM final concentration, 10 min; human OCT3-transfected vs mock cells
T2 sequence (O75751 1-556): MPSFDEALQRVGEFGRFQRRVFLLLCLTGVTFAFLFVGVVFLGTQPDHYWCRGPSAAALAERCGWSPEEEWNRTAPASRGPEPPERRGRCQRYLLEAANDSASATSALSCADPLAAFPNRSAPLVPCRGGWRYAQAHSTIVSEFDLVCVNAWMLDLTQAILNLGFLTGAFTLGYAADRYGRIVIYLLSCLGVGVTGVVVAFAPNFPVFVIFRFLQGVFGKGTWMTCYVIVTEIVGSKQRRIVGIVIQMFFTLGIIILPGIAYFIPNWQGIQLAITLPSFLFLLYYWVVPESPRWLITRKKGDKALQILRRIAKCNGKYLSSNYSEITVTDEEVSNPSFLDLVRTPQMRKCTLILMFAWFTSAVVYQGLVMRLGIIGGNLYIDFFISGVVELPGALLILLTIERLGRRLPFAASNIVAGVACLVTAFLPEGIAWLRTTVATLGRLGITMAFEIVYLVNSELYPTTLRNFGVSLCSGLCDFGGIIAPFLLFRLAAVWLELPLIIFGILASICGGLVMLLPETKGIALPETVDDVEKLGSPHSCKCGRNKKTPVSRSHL

rat Pept2 = biological target: T3, rat Pept2 (Rattus norvegicus, UniProt Q63424); assay: Cellular transport assay, HEK-293 cells expressing rat Pept2; conditions: Danshen phenolic acid at 100 μM final concentration, 10 min, incubation pH 6.0; rat Pept2-transfected vs mock cells
T3 sequence (Q63424 1-729): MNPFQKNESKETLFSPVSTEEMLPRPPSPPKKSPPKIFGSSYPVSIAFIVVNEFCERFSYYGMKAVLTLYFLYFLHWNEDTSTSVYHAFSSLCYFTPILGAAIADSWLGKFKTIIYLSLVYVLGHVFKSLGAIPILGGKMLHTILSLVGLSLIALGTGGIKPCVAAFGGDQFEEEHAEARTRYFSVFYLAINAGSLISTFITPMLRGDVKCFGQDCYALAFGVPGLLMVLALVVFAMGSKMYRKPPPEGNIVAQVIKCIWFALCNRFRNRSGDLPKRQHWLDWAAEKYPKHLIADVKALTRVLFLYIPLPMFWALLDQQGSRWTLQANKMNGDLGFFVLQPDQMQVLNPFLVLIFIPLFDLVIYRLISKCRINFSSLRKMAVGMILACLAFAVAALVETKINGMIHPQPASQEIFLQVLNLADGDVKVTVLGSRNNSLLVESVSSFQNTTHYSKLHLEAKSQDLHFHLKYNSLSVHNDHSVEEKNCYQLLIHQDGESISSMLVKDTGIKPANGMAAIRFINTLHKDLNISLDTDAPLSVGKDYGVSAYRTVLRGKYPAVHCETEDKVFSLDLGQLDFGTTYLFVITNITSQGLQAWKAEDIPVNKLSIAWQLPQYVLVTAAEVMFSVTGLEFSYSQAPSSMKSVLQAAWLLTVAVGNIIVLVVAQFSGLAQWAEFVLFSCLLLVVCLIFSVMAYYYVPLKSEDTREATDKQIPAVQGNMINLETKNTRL

rat Oct1 = biological target: T4, rat Oct1 (Rattus norvegicus, UniProt Q63089); assay: Cellular transport assay, HEK-293 cells expressing rat Oct1; conditions: Danshen phenolic acid at 100 μM final concentration, 10 min; rat Oct1-transfected vs mock cells
T4 sequence (Q63089 1-556): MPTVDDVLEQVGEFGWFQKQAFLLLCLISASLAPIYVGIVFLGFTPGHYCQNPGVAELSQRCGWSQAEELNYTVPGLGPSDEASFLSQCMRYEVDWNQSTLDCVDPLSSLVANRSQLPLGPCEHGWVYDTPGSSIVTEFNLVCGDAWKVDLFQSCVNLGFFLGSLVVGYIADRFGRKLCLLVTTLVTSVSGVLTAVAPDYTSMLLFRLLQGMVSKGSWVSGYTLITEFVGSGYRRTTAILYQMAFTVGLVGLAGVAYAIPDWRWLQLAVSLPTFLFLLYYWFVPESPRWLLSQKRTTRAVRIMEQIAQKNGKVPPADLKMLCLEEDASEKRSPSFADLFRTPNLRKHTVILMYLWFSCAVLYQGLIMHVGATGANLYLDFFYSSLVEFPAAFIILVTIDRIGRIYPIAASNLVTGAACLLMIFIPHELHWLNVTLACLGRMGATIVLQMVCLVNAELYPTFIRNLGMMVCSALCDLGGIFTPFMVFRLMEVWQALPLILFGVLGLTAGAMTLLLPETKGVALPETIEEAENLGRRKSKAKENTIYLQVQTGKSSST

[1] = set-up: method as in Lu et al., 2008; conditions: ref Lu et al., 2008; cited from earlier work

| Compound | TransportTC/TransportMC ratio (net transport ratio) (rat Oatp1a1) | TransportTC/TransportMC ratio (net transport ratio) (human OCT3) | TransportTC/TransportMC ratio (net transport ratio) (rat Pept2) | TransportTC/TransportMC ratio (net transport ratio) (rat Oct1) | membrane permeability [1] |
| --- | --- | --- | --- | --- | --- |
| O=C(/C=C/c1ccc(O)c2c1[C@H](C(=O)O)[C@@H](c1ccc(O)c(O)c1)O2)O[C@H](Cc1ccc(O)c(O)c1)C(=O)O [Lithospermic acid, lithospermic acid] | 1.41 ± 0.67 | 0.84 ± 0.15 | 0.85 ± 0.14 | 1.18 ± 0.06 |  |
| O=C(O)c1ccc(O)c(O)c1 [Protocatechuic acid, protocatechuic acid] | 1.66 ± 0.77 | 0.94 ± 0.24 | 1.21 ± 0.26 | 1.19 ± 0.41 | fairly good |
| O=C(/C=C/c1ccc(O)c(O)c1)O[C@H](Cc1ccc(O)c(O)c1)C(=O)O [Rosmarinic acid, rosmarinic acid] |  | 0.75 ± 0.23 |  |  | poor |
| O=C(O)Cc1c(/C=C/C(=O)O[C@H](Cc2ccc(O)c(O)c2)C(=O)O)ccc(O)c1O [Salvianolic acid D, salvianolic acid D] | 2.45 ± 1.88 | 0.94 ± 0.32 | 1.88 ± 0.45 | 1.23 ± 0.54 | poor |
| salvianolic acid B | 1.91 ± 0.42 | 0.75 ± 0.38 | 0.94 ± 0.21 | 0.66 ± 0.17 |  |
